Numbered stars: 1 amine (or outer) side, 2 acyl side, 3 side chain; on linkers, the order of the positions; unused ones are H or OH. Square brackets hold non-standard residues; d marks the D form. Peptide text beside a SMILES is read from it. * marks the point of attachment. X2 = C[C@@H](O)[C@H](O)[C@H](N[*:1])C(=O)[*:2]; X1 = O=C([C@@H](N[*:1])[C@@H](O)CCO)[*:2]; NMeW = CN[C@@H](Cc1c[nH]c2ccccc12)C(=O)O; NMeI = CC[C@H](C)[C@H](NC)C(=O)O; NMeT = CN[C@H](C(=O)O)[C@@H](C)O; NMeQ = CN[C@@H](CCC(N)=O)C(=O)O; NMeV = CN[C@H](C(=O)O)C(C)C; Valol = CC(C)[C@@H](CO)N*
Legend:
[1] = target: T1, Membrane-associated guanylate kinase, WW and PDZ domain-containing protein 3 (Homo sapiens, UniProt Q5TCQ9); assay: Inhibitory concentration for MAGI-3 PDZ2 domain
T1 sequence (Q5TCQ9 whole entry): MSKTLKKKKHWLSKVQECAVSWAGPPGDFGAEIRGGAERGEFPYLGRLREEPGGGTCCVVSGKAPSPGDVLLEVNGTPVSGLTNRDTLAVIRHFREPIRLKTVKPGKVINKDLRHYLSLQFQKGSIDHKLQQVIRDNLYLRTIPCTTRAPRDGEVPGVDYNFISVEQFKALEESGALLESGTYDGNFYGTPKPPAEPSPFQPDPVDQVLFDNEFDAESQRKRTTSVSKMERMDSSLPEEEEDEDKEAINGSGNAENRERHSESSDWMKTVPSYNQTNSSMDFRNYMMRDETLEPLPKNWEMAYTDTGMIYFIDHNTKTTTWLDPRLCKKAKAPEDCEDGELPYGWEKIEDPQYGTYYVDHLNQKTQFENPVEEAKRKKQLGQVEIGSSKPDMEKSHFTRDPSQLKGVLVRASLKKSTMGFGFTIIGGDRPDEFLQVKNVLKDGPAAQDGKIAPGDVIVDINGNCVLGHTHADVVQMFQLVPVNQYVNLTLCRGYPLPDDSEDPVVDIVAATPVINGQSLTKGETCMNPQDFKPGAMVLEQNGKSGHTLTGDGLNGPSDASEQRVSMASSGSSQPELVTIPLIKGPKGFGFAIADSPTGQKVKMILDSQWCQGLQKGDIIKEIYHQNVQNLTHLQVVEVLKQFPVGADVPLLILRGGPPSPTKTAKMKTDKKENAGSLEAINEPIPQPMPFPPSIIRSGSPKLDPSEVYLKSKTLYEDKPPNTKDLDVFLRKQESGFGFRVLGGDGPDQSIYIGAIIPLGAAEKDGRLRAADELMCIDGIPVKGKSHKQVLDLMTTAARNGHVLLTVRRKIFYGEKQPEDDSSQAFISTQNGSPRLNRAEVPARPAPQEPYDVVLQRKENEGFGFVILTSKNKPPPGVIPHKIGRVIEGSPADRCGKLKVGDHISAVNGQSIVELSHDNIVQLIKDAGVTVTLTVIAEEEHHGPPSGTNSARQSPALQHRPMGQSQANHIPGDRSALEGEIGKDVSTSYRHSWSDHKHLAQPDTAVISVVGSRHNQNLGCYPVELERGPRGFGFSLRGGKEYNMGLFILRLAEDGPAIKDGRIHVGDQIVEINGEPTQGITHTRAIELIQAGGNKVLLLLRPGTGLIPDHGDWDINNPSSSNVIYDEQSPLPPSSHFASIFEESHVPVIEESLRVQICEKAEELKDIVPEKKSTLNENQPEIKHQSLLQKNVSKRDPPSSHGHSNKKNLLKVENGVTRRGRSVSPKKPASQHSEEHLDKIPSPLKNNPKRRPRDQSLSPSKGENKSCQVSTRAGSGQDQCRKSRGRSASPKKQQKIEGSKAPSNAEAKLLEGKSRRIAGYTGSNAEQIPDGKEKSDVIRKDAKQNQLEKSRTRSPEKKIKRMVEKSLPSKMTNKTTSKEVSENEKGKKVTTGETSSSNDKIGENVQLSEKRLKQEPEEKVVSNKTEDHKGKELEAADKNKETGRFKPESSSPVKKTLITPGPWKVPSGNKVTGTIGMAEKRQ

[2] = target: T1, Membrane-associated guanylate kinase, WW and PDZ domain-containing protein 3; assay: Dissociation constant for binding to MAGI-3 PDZ2 domain
[3] = target: T1, Membrane-associated guanylate kinase, WW and PDZ domain-containing protein 3; assay: Inhibitory concentration for MAGI-3 PDZ2 domain; ND denotes not detected

Row | Compound | IC50 [1] | Kd [2] | IC50 [3]
1 | Ac-QITWV-OH | 4.5 µM | – | –
2 | H-PFDEDQHTQITWV-OH | 0.74 µM | 20 nM | –
3 | CC[C@H](C)[C@H](NC(=O)[C@H](CCC(N)=O)NC(=O)[C@@H](NC(C)=O)[C@@H](C)O)C(=O)N[C@H](C(=O)N[C@@H](Cc1c[nH]c2ccccc12)C(=O)N[C@H](C(=O)O)C(C)C)[C@@H](O)CCO (Ac-TQI[X1]WV-OH) | – | – | Not detected
4 | CC[C@H](C)[C@@H](C(=O)N[C@H](C(=O)N[C@@H](Cc1c[nH]c2ccccc12)C(=O)N[C@H](C(=O)O)C(C)C)[C@@H](C)O)N(C)C(=O)[C@H](CCC(N)=O)NC(=O)[C@@H](NC(C)=O)[C@@H](C)O (Ac-TQ[NMeI]TWV-OH) | 20.4 µM | – | –
5 | CC[C@H](C)[C@H](NC(=O)[C@H](CCC(N)=O)NC(=O)[C@@H](NC(C)=O)[C@@H](C)O)C(=O)NC(C(=O)N[C@@H](Cc1c[nH]c2ccccc12)C(=O)N[C@H](C(=O)O)C(C)C)[C@@H](O)CO (single isomer, unassigned) | 5.1 µM | – | –
6 | Ac-TQITWV-OH | 5.2 µM | – | –
7 | CC[C@H](C)[C@H](NC(=O)[C@H](CCC(N)=O)NC(=O)[C@@H](NC(C)=O)[C@H](C)O)C(=O)NC(C(=O)N[C@@H](Cc1cn(C)c2ccccc12)C(=O)N[C@H](C(=O)O)C(C)C)[C@H](C)O (single isomer, unassigned) | 34 µM | – | –
8 | CC[C@H](C)[C@H](NC(=O)[C@H](CCC(N)=O)NC(=O)[C@@H](NC(C)=O)[C@@H](C)O)C(=O)N(C)[C@H](C(=O)N[C@@H](Cc1c[nH]c2ccccc12)C(=O)N[C@H](C(=O)O)C(C)C)[C@@H](C)O (Ac-TQI[NMeT]WV-OH) | 29 µM | – | –
9 | H-PFDEDQHTQIAKV-OH [PFDEDQHTQIAKV] | 14.4 µM | – | –
10 | CC[C@H](C)[C@H](NC(=O)[C@H](CCC(N)=O)NC(=O)[C@@H](NC(C)=O)[C@H](C)O)C(=O)NC(C(=O)N[C@@H](Cc1c[nH]c2ccccc12)C(=O)N[C@H](C(=O)O)C(C)C)[C@@H](O)C(C)(C)O (single isomer, unassigned) | – | – | Not detected
11 | CC[C@H](C)[C@H](NC(=O)[C@H](CCC(N)=O)NC(=O)[C@@H](NC(C)=O)[C@H](C)O)C(=O)N[C@@H](C(=O)N[C@@H](Cc1c[nH]c2ccccc12)C(=O)N[C@H](C(=O)NO)C(C)C)[C@H](C)O | 42.1 µM | – | –
12 | CC[C@H](C)[C@H](NC(=O)[C@H](CCC(N)=O)NC(=O)[C@@H](NC(C)=O)[C@@H](C)O)C(=O)N[C@H](C(=O)N[C@@H](Cc1c[nH]c2ccccc12)C(=O)N[C@H](C(=O)O)C(C)C)[C@@H](O)[C@@H](C)O (Ac-TQI[X2]WV-OH) | – | – | Not detected
13 | CCC(O)[C@H](O)C(NC(=O)[C@@H](NC(=O)[C@H](CCC(N)=O)NC(=O)[C@@H](NC(C)=O)[C@@H](C)O)[C@@H](C)CC)C(=O)N[C@@H](Cc1c[nH]c2ccccc12)C(=O)N[C@H](C(=O)O)C(C)C (single isomer, unassigned) | – | – | Not detected
14 | CC[C@H](C)[C@H](NC(=O)[C@H](CCC(N)=O)N(C)C(=O)[C@@H](NC(C)=O)[C@@H](C)O)C(=O)N[C@H](C(=O)N[C@@H](Cc1c[nH]c2ccccc12)C(=O)N[C@H](C(=O)O)C(C)C)[C@@H](C)O (Ac-T[NMeQ]ITWV-OH) | 9.8 µM | – | –
15 | Ac-HTQITWV-OH | 4.1 µM | – | –
16 | CC[C@H](C)[C@H](NC(=O)[C@H](CCC(N)=O)NC(=O)[C@@H](NC(C)=O)[C@@H](C)O)C(=O)N[C@H](C(=O)N[C@@H](Cc1c[nH]c2ccccc12)C(=O)N[C@H](CO)C(C)C)[C@@H](C)O (Ac-TQITW-Valol) | – | – | Not detected
17 | H-PFDEDQHTQITKV-OH | – | 1000 nM | –
18 | CC[C@H](C)[C@H](NC(C)=O)C(=O)N[C@H](C(=O)N[C@@H](Cc1c[nH]c2ccccc12)C(=O)N[C@H](C(=O)O)C(C)C)[C@@H](C)O (Ac-ITWV-OH) | 14.8 µM | – | –
19 | CC[C@H](C)[C@H](NC(=O)[C@H](CCC(N)=O)NC(=O)[C@@H](NC(C)=O)[C@@H](C)O)C(=O)N[C@H](C(=O)N[C@@H](Cc1c[nH]c2ccccc12)C(=O)N(C)[C@H](C(=O)O)C(C)C)[C@@H](C)O (Ac-TQITW[NMeV]-OH) | – | – | Not detected
20 | CC[C@H](C)[C@H](NC(=O)[C@H](CCC(N)=O)NC(=O)[C@@H](NC(C)=O)[C@@H](C)O)C(=O)N[C@H](C(=O)N(C)[C@@H](Cc1c[nH]c2ccccc12)C(=O)N[C@H](C(=O)O)C(C)C)[C@@H](C)O (Ac-TQIT[NMeW]V-OH) | 10.6 µM | – | –
